The text below walks through data of patent publication EP4786466A1, “QUINAZOLINE DERIVATIVE, SALT THEREOF, AND PHARMACEUTICAL COMPOSITION COMPRISING SAME AS ACTIVE INGREDIENT” (Korea Research Institute of Chemical Technology, priority 2023, dated 2025).

Read-outs that look alike come from different tables or passages of the source.

The target in series [1] is T1, Recombinant GST-TAG-MASTL (Homo sapiens, UniProt Q96GX5).
T1 construct: GST; purchased Thermo Fisher Scientific
T1 sequence (Q96GX5 1-879): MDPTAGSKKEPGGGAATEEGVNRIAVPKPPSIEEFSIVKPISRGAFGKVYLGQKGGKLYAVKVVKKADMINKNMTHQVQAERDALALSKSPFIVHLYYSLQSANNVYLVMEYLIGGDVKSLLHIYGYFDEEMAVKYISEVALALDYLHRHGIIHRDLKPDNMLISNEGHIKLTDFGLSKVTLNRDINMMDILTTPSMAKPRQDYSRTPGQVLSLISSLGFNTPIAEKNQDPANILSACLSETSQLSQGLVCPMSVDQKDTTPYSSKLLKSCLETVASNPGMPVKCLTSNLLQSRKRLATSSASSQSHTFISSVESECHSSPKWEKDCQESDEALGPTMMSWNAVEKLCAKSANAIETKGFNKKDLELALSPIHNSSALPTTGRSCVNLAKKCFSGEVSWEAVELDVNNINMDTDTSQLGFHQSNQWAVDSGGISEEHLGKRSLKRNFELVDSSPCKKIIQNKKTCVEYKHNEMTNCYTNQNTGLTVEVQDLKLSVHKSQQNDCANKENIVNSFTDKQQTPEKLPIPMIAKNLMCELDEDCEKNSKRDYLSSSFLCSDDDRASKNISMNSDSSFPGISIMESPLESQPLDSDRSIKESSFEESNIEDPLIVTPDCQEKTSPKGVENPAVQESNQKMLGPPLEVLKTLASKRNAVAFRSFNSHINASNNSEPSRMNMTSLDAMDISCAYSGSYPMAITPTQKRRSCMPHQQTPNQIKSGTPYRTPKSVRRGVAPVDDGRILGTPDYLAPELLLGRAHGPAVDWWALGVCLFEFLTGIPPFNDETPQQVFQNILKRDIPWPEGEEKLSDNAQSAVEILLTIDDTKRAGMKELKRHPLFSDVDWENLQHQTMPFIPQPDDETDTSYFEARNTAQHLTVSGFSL
Description: HTRF-based kinase assay (HTRF KinEASE assay kit). In kind it is biochemical. The following applies: for activity at 1 µM: read-out: MASTL activity (%) HTRF (1 µM). The source says: Recombinant GST-TAG-MASTL (Thermo Fisher Scientific, MA, USA) was used for HTRF-based kinase assays. The HTRF KinEASE assay kit (CisBio, MA, USA) was used according to the manufacturer's instructions.
Background: In TR-FRET formats the signal depends on donor and acceptor labels being close together.

For series [2], the system named is pENSA. As to the kind of experiment: pENSA level by immunofluorescence (described method: in vitro kinase analysis with GST-tag-MASTL and His-tag-ENSA). The following applies: compound 1 µM. Type of series: cell-based. An outline of the steps:
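In vitro kinase reaction using recombinant GST-tagged MASTL with His-tagged ENSA as substrate; phosphorylated ENSA (pENSA) serves as read-out of MASTL activity. Cell lines named: MCF7 breast cancer and MCF10A.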

Series [3] can be described thus: in vitro. The following applies: human; for viability at 1 µM: mcf10a cells.
Description: (§1) MCF7 breast cancer cell lines and MCF10A normal breast cancer cell lines were treated with serial dilutions of the compounds of the present invention ranging from 1 µM to 15.63 nM for 72 hours. Cell viability was measured by the WST-8 assay (Cyto XTM cell viability assay kit; LPS solution, Daejeon, Korea) according to the manufacturer's instructions.
Series [4] concerns MCF7 breast cancer cell lines. Description: Cell viability analysis, WST-8 assay, MCF7. The following applies: Homo sapiens, MCF7, 72 h; for viability at 1 µM: read-out: Cell viability (%) WST-8, MCF7 (1 µM), compound 1 µM, 72 hours; for IC50: read-out: IC50 Cell viability (MCF7). A general note: Formazan colour is commonly taken as a measure of viable cells.
Description: as §1
Series [5] relates to MCF10A normal breast cell lines. Description: Cell viability analysis, WST-8 assay, MCF10A. The following applies: Homo sapiens, MCF-10A, 72 h, read-out: IC50 Cell viability (MCF10A).
Description: as §1

One may read the IC50 as the concentration that inhibits the measured activity by half.

For the compound `NCCNC(=O)c1ccc(Nc2nc(Nc3cc(C4CC4)[nH]n3)c3ccccc3n2)cc1` [4aa, M-(2-aminoethyl)-4-((4-((5-cyclopropyl-1G-pyrazol-3-yl)amino)quinazolin-2-yl)amino)benzamide.trifluoroacetic acid], the IC50 in series [1] came to 0.72 µM; in series [4], 4.5 µM; in series [5] it was 9 µM. Moreover, in series [1], the activity at 1 µM amounted to 26.8%. In addition, the “pENSA (%) Immunofluor ecense (1 µM)” value in series [2] is listed as 142.5%. The viability at 1 µM was found to be 111% in series [3] and 87.6% in series [4].

On to `Nc1nc(Nc2cc(C3CC3)[nH]n2)c2ccccc2n1` [compound 4ca, N^4-(5-cyclopropyl-1H-pyrazol-3-yl)quinazoline-2,4-diamine], for which the IC50 in series [1] (HTRF, unit µM, read-out: IC50 MASTL activity) is 1.8 µM; in series [4], 1.7 µM; in series [5], 2.8 µM. Moreover, the activity at 10 µM in series [1] (footnote b: concentration 10 µM, read-out: MASTL activity (%) HTRF) came out at 37.4%. Further, the viability at 1.25 µM in series [3] came to 99.1%; in series [4] (read-out: Cell viability (%) WST-8, MCF7, footnote a: concentration 1.25 µM, 72 hours), 43%.

Turning to `CCCc1ccc(S(=O)(=O)N2CC3CC2CN3c2nc(Nc3cc(C4CC4)[nH]n3)c3ccccc3n2)cc1` (stereo not shown) [compound 15x, M-(5-cyclopropyl-1G-pyrazol-3-yl)-2-(5-((4-propylphenyl)sulfonyl)-2,5-diazabicyclo[2.2.1]heptan-2-yl)quinazolin-4-amine], in series [1] (compound 1 µM), the activity at 1 µM came to 68.4%. Moreover, the “pENSA (%) Immunofluor ecense (1 µM)” value in series [2] is 94.0%. In addition, the figures for the viability at 1 µM in series [3] and in series [4] were 98.3% and 122%, respectively.

With `O=S(=O)(c1cccc2cccnc12)N1CC2CC1CN2c1nc(Nc2cc(C3CC3)[nH]n2)c2ccccc2n1` (stereo not shown) [compound 15z, M-(5-cyclopropyl-1G-pyrazol-3-yl)-2-(5-(quinolin-8-ylsulfonyl)-2,5-diazabicyclo[2.2.1]heptan-2-yl)quinazolin-4-amine], the activity at 1 µM in series [1] (compound 1 µM) turned out to be 105%. Besides, the “pENSA (%) Immunofluor ecense (1 µM)” value in series [2] is 102%. In addition, the viability at 1 µM in series [3] turned out to be 111%; in series [4] it was 110%.

As to `O=S(=O)(c1ccc(F)cc1F)N1CC2CCC1CN2c1nc(Nc2cc(C3CC3)[nH]n2)c2ccccc2n1` (stereo not shown) [compound 24c, M-(5-cyclopropyl-1G-pyrazol-3-yl)-2-(5-((2,4-difluorophenyl)sulfonyl)-2,5-diazabicyclo[2.2.2]octan-2-yl)quinazolin-4-amine], the activity at 1 µM in series [1] (compound 1 µM) was 16.6%. The “pENSA (%) Immunofluor ecense (1 µM)” value in series [2] was 24.3%. For the same compound, the viability at 1 µM in series [3] worked out at 10.8%; in series [4], 68.3%.

With `CN(C)S(=O)(=O)c1ccc(Nc2nc(Nc3ccc(CC#N)cc3)nc3ccccc23)cc1` [compound 25a, 4-((2-((4-(cyanomethyl)phenyl)amino)quinazolin-4-yl)amino)-M,M-dimethylbenzenesulfonamide], the activity at 1 µM in series [1] (compound 1 µM) turned out to be 114%. Besides, the “pENSA (%) Immunofluor ecense (1 µM)” value in series [2] was found to be 91.2%. Moreover, the viability at 1 µM in series [3] worked out at 71.6%; in series [4], 105%.

Turning to `CN(C)S(=O)(=O)c1ccc(Nc2nc(Nc3ccc(C#N)cc3)nc3ccccc23)cc1` [compound 25b, 4-((2-((4-cyanophenyl)amino)quinazolin-4-yl)amino)-M,M-dimethylbenzenesulfonamide], in series [1] (compound 1 µM), the activity at 1 µM came out at 91.6%. Moreover, the “pENSA (%) Immunofluor ecense (1 µM)” value in series [2] is listed as 102%. Also, the viability at 1 µM turned out to be 58.1% in series [3] and 86.4% in series [4].

For `CN(C)S(=O)(=O)c1ccc(Nc2nc(Nc3ccc(C(F)(F)F)cc3)nc3ccccc23)cc1` [compound 25c, M,M-dimethyl-4-((2-((4-(trifluoromethyl)phenyl)amino)quinazolin-4-yl)amino)benzenesulfonamide], the activity at 1 µM in series [1] amounted to 108%. In series [2], the “pENSA (%) Immunofluor ecense (1 µM)” value is 96.5%. Also, the viability at 1 µM in series [3] turned out to be 90%; in series [4] it was 86.4%.

For the compound `CN(C)S(=O)(=O)c1ccc(Nc2nc(Nc3ccccc3)nc3ccccc23)cc1` [compound 25d, M,M-dimethyl-4-((2-(phenylamino)quinazolin-4-yl)amino)benzenesulfonamide], the activity at 1 µM in series [1] was determined as 107%. Besides, the “pENSA (%) Immunofluor ecense (1 µM)” value in series [2] was 80.6%. Besides, the viability at 1 µM in series [3] came out at 106%; in series [4], 90.8%.

Turning to `Cc1cc(Nc2nc(N3CC4CC3CN4C(=O)C(C)C)nc3ccccc23)n[nH]1` (stereo not shown) [compound 27c, 2-methyl-1-(5-(4-((5-methyl-1G-pyrazol-3-yl)amino)quinazolin-2-yl)-2,5-diazabicyclo[2.2.1]heptan-2-yl)propan-1-one], the activity at 1 µM in series [1] (compound 1 µM) was 102%. Also, the “pENSA (%) Immunofluor ecense (1 µM)” value in series [2] is reported as 90.5%. Moreover, the viability at 1 µM came out at 46.7% in series [3] and 103% in series [4].

`Cc1cc(Nc2nc(N3CC4CC3CN4C(=O)c3ccccc3)nc3ccccc23)n[nH]1` (stereo not shown) [compound 27d, (5-(4-((5-methyl-1G-pyrazol-3-yl)amino)quinazolin-2-yl)-2,5-diazabicyclo[2.2.1]heptan-2-yl)(phenyl)methanone]: in series [1] (compound 1 µM), the activity at 1 µM was 121%. Further, in series [2], the “pENSA (%) Immunofluor ecense (1 µM)” value was 60.6%. Further, the viability at 1 µM in series [3] was 48.3%; in series [4], 94.9%.

`Cc1cc(Nc2nc(N3CC4CC3CN4CC(C)C)nc3ccccc23)n[nH]1` (stereo not shown) [compound 27e, 2-(5-isobutyl-2,5-diazabicyclo[2.2.1]heptan-2-yl)-M-(5-methyl-1G-pyrazol-3-yl)quinazolin-4-amine]: the activity at 1 µM in series [1] (compound 1 µM) was found to be 67.4%. Moreover, the “pENSA (%) Immunofluor ecense (1 µM)” value in series [2] worked out at 90.1%. Moreover, the viability at 1 µM in series [3] was found to be 74.8%; in series [4] it was 88.3%.

`Cc1cc(Nc2nc(N3CC4CC3CN4Cc3ccccc3)nc3ccccc23)n[nH]1` (stereo not shown) [compound 27f, 2-(5-benzyl-2,5-diazabicyclo[2.2.1]heptan-2-yl)-M-(5-methyl-1G-pyrazol-3-yl)quinazolin-4-amine]: the activity at 1 µM in series [1] (compound 1 µM) came to 78.4%. Besides, the “pENSA (%) Immunofluor ecense (1 µM)” value in series [2] turned out to be 77.4%. In addition, the viability at 1 µM in series [3] was 113%; in series [4], 109%.

With `CC(C)C(=O)N1CC2CC1CN2c1nc(Nc2cn[nH]c2)c2ccccc2n1` (stereo not shown) [compound 28c, 1-(5-(4-((1G-pyrazol-4-yl)amino)quinazolin-2-yl)-2,5-diazabicyclo[2.2.1]heptan-2-yl)-2-methylpropan-1-one], the activity at 1 µM in series [1] (compound 1 µM) stood at 117%. In series [2], the “pENSA (%) Immunofluor ecense (1 µM)” value was 80.0%. Also, the viability at 1 µM in series [3] came out at 85.3%; in series [4], 105%.

Turning to `O=C(c1ccccc1)N1CC2CC1CN2c1nc(Nc2cn[nH]c2)c2ccccc2n1` (stereo not shown) [compound 28d, (5-(4-((1G-pyrazol-4-yl)amino)quinazolin-2-yl)-2,5-diazabicyclo[2.2.1]heptan-2-yl)(phenyl)methanone], in series [1] (compound 1 µM), the activity at 1 µM was 119%. For the same compound, the “pENSA (%) Immunofluor ecense (1 µM)” value in series [2] worked out at 66.9%. The viability at 1 µM in series [3] worked out at 49.7%; in series [4] it was 93.1%.

Regarding `CC(C)CN1CC2CC1CN2c1nc(Nc2cn[nH]c2)c2ccccc2n1` (stereo not shown) [compound 28e, 2-(5-isobutyl-2,5-diazabicyclo[2.2.1]heptan-2-yl)-M-(1G-pyrazol-4-yl)quinazolin-4-amine], the activity at 1 µM in series [1] (compound 1 µM) stood at 103%. Further, the “pENSA (%) Immunofluor ecense (1 µM)” value in series [2] is reported as 95.8%. Besides, the viability at 1 µM in series [3] came to 105%; in series [4], 97.3%.

Consider `c1ccc(CN2CC3CC2CN3c2nc(Nc3cn[nH]c3)c3ccccc3n2)cc1` (stereo not shown) [compound 28f, 2-(5-benzyl-2,5-diazabicyclo[2.2.1]heptan-2-yl)-M-(1G-pyrazol-4-yl)quinazolin-4-amine], for which the activity at 1 µM in series [1] (compound 1 µM) came to 118%. Also, the “pENSA (%) Immunofluor ecense (1 µM)” value in series [2] was found to be 85.1%. Also, the viability at 1 µM in series [3] amounted to 101%; in series [4], 110%.
